Converted amounts (≈) assume the structure as drawn.
Columns and labels:
BCL6 BTB-POZ domain = settings: read-out: potency on BCL6 BTB-POZ domain; cited from earlier work
[1] = biological target: T1, human BCL6 BTB-POZ domain (BCL6 co-repressor peptide) (Homo sapiens, UniProt P41182, C67R/C84N/C8Q); assay: BCL6 TR-FRET assay, BCOR peptide displacement; assay type: binding; settings: read-out: pIC50 Human TR-FRET BCL6 co-repressor (converted)
T1 construct: BCL6-Flag-6H-Avi (5-129) C8Q, C67R, C84N proteins; Flag (C); 6H (His6) (C); made in house; host or cells: E. coli
Experimental: (§1) Human, mouse and rat BCL6-Flag-6H-Avi (5-129) C8Q, C67R, C84N proteins were expressed in E. coli according to standard procedures and purified on Ni-NTA, followed by ion exchange on a Source 30Q column and size exclusion on an Superdex 200 column in a buffer of 20 mM Tris, 250 mM NaCl, 5 mM DTT, 5% glycerol, pH 8.5. All protein purities were estimated to be >90% by SDS-PAGE and the expected masses were confirmed by MS analysis. For TR-FRET assay protein was enzymatically biotinylated by treatment of protein at 100 µM with a 2 fold molar excess of biotin in the presence of 2 mM ATP and 1 µM BirA enzyme in a buffer of 50 mM bicine pH 8.3, 10 mM MgCl2 at 30 °C for 1 hour, followed by extensivedialysis against 50 mM Tris-Cl pH 8.0, 100 mM NaCl, 1 mM DTT using a 3.5 kDa cut-off membrane. Biotinylation was confirmed by MS analysis and concentration was determined by Bradford assay, after which protein was stored in aliquots at -80 °C.
(§2) Acceptor-labelled SMRT peptide H2N-[…](D2)-OH was dissolved in water by mass to give a 500 µM stock solution which was stored at -20 °C. Acceptor-labelled NCOR peptide H2N-[…](Alexa Fluor 647)-OH and acceptor-labelled BCOR peptide H2N-[…](Alexa Fluor 647)-OH were dissolved to a nominal concentration of 1 mM in DMSO, and stock solution concentration was determined by absorbance at 650 nm using an extinction coefficient of 270,000 M-1cm^-1. […]

rat BCL6 and SMRT = biological target: T2, rat BCL6 and SMRT (Rattus norvegicus, UniProt B2GUV8, C67R/C84N/C8Q); assay: BCL6 TR-FRET assay, rat BCL6 and SMRT; assay type: binding
T2 construct: BCL6-Flag-6H-Avi (5-129) C8Q, C67R, C84N proteins; Flag (C); 6H (His6) (C); made in house; host or cells: E. coli
Experimental: as §1, §2

[2] = GSK in-house kinetic solubility assay (CAD); assay type: physicochemical; settings: kinetic from dmso stock, charged aerosol detector
[3] = biological target: human serum albumin (HSA) (Homo sapiens, UniProt P02768); assay: Binding to human serum albumin; assay type: in vitro ADME
human serum albumin (HSA), sequence (P02768 25-609): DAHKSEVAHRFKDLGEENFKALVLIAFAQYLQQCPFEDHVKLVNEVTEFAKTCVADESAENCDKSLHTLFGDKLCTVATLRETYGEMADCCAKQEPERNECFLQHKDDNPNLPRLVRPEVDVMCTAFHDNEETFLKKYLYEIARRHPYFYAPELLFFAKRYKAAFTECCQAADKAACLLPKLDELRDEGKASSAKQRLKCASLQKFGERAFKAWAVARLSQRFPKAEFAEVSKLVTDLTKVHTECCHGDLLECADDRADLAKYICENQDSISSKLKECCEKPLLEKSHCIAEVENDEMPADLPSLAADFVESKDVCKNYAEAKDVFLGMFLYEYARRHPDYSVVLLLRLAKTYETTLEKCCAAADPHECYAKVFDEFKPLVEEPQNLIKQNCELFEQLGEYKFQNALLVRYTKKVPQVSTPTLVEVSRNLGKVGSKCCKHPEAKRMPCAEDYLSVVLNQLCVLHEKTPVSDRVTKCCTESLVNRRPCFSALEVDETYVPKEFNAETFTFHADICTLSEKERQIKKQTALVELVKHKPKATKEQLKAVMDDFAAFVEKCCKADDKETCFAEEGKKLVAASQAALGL

splenic germinal centers = assay: Spleen immunohistochemistry of germinal centers; assay type: in vivo, mouse
Experimental: Immunohistochemistry of GCs in spleens was obtained from a pilot experiment to test immunization conditions carried out at the University of Leicester using groups of C57BL/6J mice. One group of mice was immunized with TNP-KLH (100 μg) followed by treatment with GSK137 15 mg/kg by oral gavage three times per day from day -1 to day +12 (n = 3), whereas the other was treated with vehicle by oral gavage three times per day from day -1 to day +12 following immunization (n = 6). Formalin-fixed paraffin-embedded sections of mouse spleen were stained with antimouse B220/CD45R (BD Biosciences; catalog no. 550286), […] (Abcam; ab32064), and anti-Ki67 (Abcam; ab15580) antibodies using Opal Multiplex IHC detection kit (NEL810001KT; Akoya Biosciences). The sections were counterstained with 4',6-diamidino-2-phenylindole for 5 min and mounted with ProLong Diamond Antifade mountant (Invitrogen; P36970). Images were obtained using Vectra Polaris multicolor fluorescence scanner (Akoya Biosciences). Quantification was carried out by inForm image analysis software (Akoya Biosciences). Normality tests were carried out for the B220^+Ki67^+ and […]^+ data. Both datasets were normally distributed, and accordingly, statistical significance was determined by unpaired t test.

Row | Structure (SMILES) | IC50 (BCL6 BTB-POZ domain) | IC50 [1] | pIC50 Rat TR-FRET SMRT (rat BCL6 and SMRT) | solubility [2] | HSA binding [3] | fraction of B220+ cells expressing clPARP within splenic B-cell follicles vs control (splenic germinal centers; 15 mg/kg) | number of GCs per follicle (mean ± SD) (splenic germinal centers; 15 mg/kg orally TID, C57BL/6J mice, vehicle 0.5 ± 0.11, p = 0.04) | numbers of B220+Ki-67+ cells within each GC vs vehicle (splenic germinal centers; 15 mg/kg, unpaired t test, p = 0.01)
1 | CNC(=O)COc1cc2cc(Nc3nc(N4C[C@H](C)C[C@H](C)C4)ncc3Cl)ccc2n(C)c1=O [BI3802, reference compound] | < 3 nM |  |  |  |  |  |  | 
2 | Cc1ncccc1[C@H]1C[C@@H](c2cccc3nc(N)ccc23)Nc2c(F)cnn21 [GSK137, 5-((5S,7R)-3-Fluoro-7-(2-methylpyridin-3-yl)-4,5,6,7-tetrahydropyrazolo[1,5-a]pyrimidin-5-yl)quinolin-2-amine] |  | 25.1 nM | 7.6 | 128 µg/mL (≈ 342 µM) | 91% | no significant difference | 0.27 ± 0.06 | significant reductions

— paper PMC8350397, “GSK137, a potent small-molecule BCL6 inhibitor with in vivo activity, suppresses antibody responses in mice” (The Journal of Biological Chemistry, 2021)
